Experimental findings from ChEMBL document CHEMBL1914390, “A new method for induced fit docking (GENIUS) and its application to virtual screening of novel HCV NS3-4A protease inhibitors” (Bioorg Med Chem, 2011) are described below.

A value given as a limit tells only on which side of the number the result lay.

Data set [1] can be described thus: Inhibition of HCV recombinant N-terminal histidine-tagged NS3/4A protease expressed Escherichia coli using Mca-Asp-Asp-Ile-Val-Pro-Cys-Ser-Met-Lys(Dnp)-Arg-Arg as fluorogenic substrate after 30 mins by FRET assay. Also noted: species or system Hepacivirus hominis.
Data set [2] concerns Hepatitis C virus. As to the kind of experiment: Antiviral activity against Hepatitis C virus infected in human Huh7/Rep-Feo cells assessed as inhibition of viral replication after 72 hrs by luciferase assay. The data set is classed as functional, organism-based, Hepacivirus hominis. Conditions: Huh-7, 72 h.
Data set [3] is described as follows: Cytotoxicity against human HuH7 cells expressing chimeric gene encoding firefly luciferase and neomycin phosphotransferase assessed as cell proliferation after 72 hrs by MTT assay. The data set is classed as cell-based, Huh-7. For orientation: Formazan colour is commonly taken as a measure of viable cells.
Data set [4] is described as follows: Cytotoxicity against human HuH7 cells expressing chimeric gene encoding firefly luciferase and neomycin phosphotransferase assessed as cell viability after 72 hrs by cell titer-glo luminescent assay. The data set is classed as cell-based, Huh-7. For orientation: In ATP-based viability assays light output follows the ATP content of the culture.
Data set [5] in a line: Selectivity index, ratio of CC50 for human HuH7 cells expressing chimeric gene encoding firefly luciferase and neomycin phosphotransferase by cell titer-glo luminescent cell viability assay to EC50 for HCV. Also noted: species or system Huh-7.
Data set [6] has as its system Hepacivirus hominis. Kind of data set: Ratio of EC50 for HCV to IC50 for HCV recombinant N-terminal histidine-tagged NS3/4A protease.
In data set [7] the test system is Hepacivirus hominis. As to the kind of experiment: Inhibition of HCV recombinant N-terminal histidine-tagged NS3/4A protease expressed Escherichia coli using Mca-Asp-Asp-Ile-Val-Pro-Cys-Ser-Met-Lys(Dnp)-Arg-Arg as fluorogenic substrate at 100 uM after 30 mins by FRET assay.
Data set [8] in a line: Selectivity index, ratio of CC50 for human HuH7 cells expressing chimeric gene encoding firefly luciferase and neomycin phosphotransferase by MTT assay to EC50 for HCV. Also noted: species or system Huh-7.

As usually defined, the IC50 is the concentration that inhibits the measured activity by half. The EC50 is the concentration at which the effect is half-maximal. By CC50 is commonly meant the concentration at which the toxic effect on the cells reaches its halfway point. Consider `COc1cc(/C=N/NC(=O)c2cc3cc([N+](=O)[O-])ccc3o2)ccc1OCc1ccc([N+](=O)[O-])cc1`, for which the half-inhibitory concentration (IC50) in data set [1] stood at 8.59 µM. Further, the EC50 in data set [2] came out at 12 µM. The results for the CC50 at 72 h in data set [3] and in data set [4] were above 125 µM and above 80 µM, respectively. Besides, in data set [5], the “Ratio CC50/EC50” value is reported as above 9.3.
For the molecule `C=CCc1cc(/N=N/C(=O)c2cc3cc([N+](=O)[O-])ccc3o2)cc(OCC)c1OCc1ccc(Cl)cc1`, in data set [1], the IC50 came out at 8.07 µM. Further, in data set [2], the EC50 is above 125 µM. Moreover, in data set [3], the CC50 at 72 h is above 125 µM.
`COc1cc(/C=N/NC(=O)COc2ccc([N+](=O)[O-])cc2)ccc1OC(=O)c1sc2ccccc2c1Cl`: the IC50 in data set [1] turned out to be 12.3 µM. The EC50 in data set [2] was found to be 93 µM. Moreover, the CC50 at 72 h in data set [3] is above 125 µM. In addition, in data set [6], the Ratio is 10.
As for `O=C(COc1ccc([N+](=O)[O-])cc1)N/N=C/c1ccccc1OC(=O)c1sc2ccccc2c1Cl`, the IC50 in data set [1] amounted to 1.06 µM. Moreover, the EC50 in data set [2] is 19.5 µM. The results for the half-maximal cytotoxic concentration (CC50) at 72 h in data set [3] and in data set [4] were above 125 µM and 40 µM, respectively. In data set [6], the Ratio came to 10. Further, the “Ratio CC50/EC50” value in data set [5] is given as 2.1.
With `COc1ccc(C(=O)Cc2ccc3ccccc3c2/C=N/NC(=O)COc2ccc([N+](=O)[O-])cc2)cc1`, the IC50 in data set [1] turned out to be 64.3 µM. Further, the EC50 in data set [2] worked out at 8.5 µM. Also, the values for the 50% cytotoxic concentration (CC50) at 72 h in data set [3] and in data set [4] were above 125 µM and 9 µM, respectively. Further, in data set [5], the “Ratio CC50/EC50” value is recorded as 1.1.
Consider `COc1cc(/C=N/NC(=O)c2cc3cc([N+](=O)[O-])ccc3o2)cc([N+](=O)[O-])c1OCc1ccc([N+](=O)[O-])cc1`, for which the IC50 in data set [1] was 8.34 µM.
For the molecule `COc1cc(/C=N/NC(=O)c2cc3cc([N+](=O)[O-])ccc3o2)c(C)cc1OCc1ccc([N+](=O)[O-])cc1`, the IC50 in data set [1] came out at 17.1 µM.
What is called inhibition is the change of the read-out against control, counted positive when it falls. In the case of `CCCOc1ccc(C(=O)Oc2ccc(/C=N/NC(=O)COc3ccc([N+](=O)[O-])cc3)cc2OCC)cc1`, in data set [7], the inhibition is 38%. The concentration for a half-maximal effect (EC50) in data set [2] worked out at 13 µM. For the same molecule, the half-maximal cytotoxic concentration (CC50) at 72 h in data set [3] was above 125 µM. In data set [8], the “Ratio CC50/EC50” value was above 9.6.
On to `CCOc1cc(/C=N/NC(=O)C(C)Oc2ccc([N+](=O)[O-])cc2)ccc1OC(=O)c1ccc(Cl)cc1Cl` (centres undefined), for which the inhibition in data set [7] is 42.9%. Also, the concentration giving a half-maximal response (EC50) in data set [2] came out at 23 µM. For the same molecule, the CC50 at 72 h in data set [3] is above 125 µM. The “Ratio CC50/EC50” value in data set [8] is given as above 5.4.
As to `COc1cc(/C=N/NC(=O)C(C)Oc2ccc([N+](=O)[O-])cc2)ccc1OC(=O)c1sc2ccccc2c1Cl` (centres undefined), the IC50 in data set [1] is 4.08 µM. Moreover, the EC50 in data set [2] was found to be 121 µM. Further, the CC50 at 72 h in data set [3] was above 125 µM. Moreover, the Ratio in data set [6] is 10.
As to `CCc1cc(OCc2ccc([N+](=O)[O-])cc2)c(OC)cc1/C=N/NC(=O)c1cc2cc([N+](=O)[O-])ccc2o1`, in data set [1], the IC50 turned out to be 11.9 µM.
For `CCC(C)Oc1ccc(/N=N/C(=O)c2cc3cc([N+](=O)[O-])ccc3o2)cc1Br` (centres undefined), in data set [1], the IC50 was determined as 22.7 µM. Further, the concentration for a half-maximal effect (EC50) in data set [2] turned out to be 13.5 µM. Further, the CC50 at 72 h in data set [3] amounted to 57 µM; in data set [4], 36 µM. In addition, in data set [5], the “Ratio CC50/EC50” value turned out to be 2.6.
`CC(Oc1ccc([N+](=O)[O-])cc1)C(=O)N/N=C/c1ccccc1OC(=O)c1sc2ccccc2c1Cl` (centres undefined): the IC50 in data set [1] was 1.01 µM. In data set [2], the EC50 came out at 12.5 µM. Moreover, the figures for the CC50 at 72 h in data set [3] and in data set [4] were above 125 µM and 19 µM, respectively. Moreover, in data set [6], the Ratio turned out to be 10. Further, in data set [5], the “Ratio CC50/EC50” value is recorded as 1.5.
